Test results reported in ChEMBL document CHEMBL3046848, “Synthesis and biological evaluation of novel series of thieno[2,3-d]pyrimidine derivatives as anticancer and antimicrobial agents” (2013).

How the values were obtained:
Assay type in all cases: functional
LOX IMVI = assay: Anticancer activity against Homo sapiens (human) LOXIMVI cells after 48 hr by SRB assay
SF-295 = assay: Anticancer activity against Homo sapiens (human) SF295 cells after 48 hr by SRB assay; settings: SF-295, 48 h
CAKI-1 = assay: Growth inhibition of Homo sapiens (human) CAKI-1 cells at 10 uM after 48 hr by SRB assay; settings: CAKI-1, 48 h, read-out: GI
ACHN [1] = assay: Growth inhibition of Homo sapiens (human) ACHN cells at 10 uM after 48 hr by SRB assay; settings: read-out: GI
786-0 [2] = assay: Growth inhibition of Homo sapiens (human) 786-0 cells at 10 uM after 48 hr by SRB assay; settings: 786-0, 48 h, read-out: GI
HL-60(TB) [3] = assay: Growth inhibition of Homo sapiens (human) HL-60(TB) cells at 10 uM after 48 hr by SRB assay; settings: HL-60, 48 h, read-out: GI
OVCAR-5 = assay: Growth inhibition of Homo sapiens (human) OVCAR5 cells at 10 uM after 48 hr by SRB assay; settings: OVCAR-5, 48 h, read-out: GI
NCI/ADR-RES = assay: Growth inhibition of Homo sapiens (human) NCI/ADR-RES cells at 10 uM after 48 hr by SRB assay; settings: read-out: GI
MCF7 = assay: Growth inhibition of Homo sapiens (human) MCF7 cells at 10 uM after 48 hr by SRB assay; settings: MCF7, 48 h, read-out: GI
Hs-578T = assay: Growth inhibition of Homo sapiens (human) Hs 578T cells at 10 uM after 48 hr by SRB assay; settings: read-out: GI
MOLT-4 = assay: Anticancer activity against Homo sapiens (human) MOLT4 cells after 48 hr by SRB assay; settings: MOLT-4, 48 h
HL-60(TB) [4] = assay: Anticancer activity against Homo sapiens (human) HL-60(TB) cells after 48 hr by SRB assay; settings: HL-60, 48 h
SNB-75 = assay: Growth inhibition of Homo sapiens (human) SNB75 cells at 10 uM after 48 hr by SRB assay; settings: SNB-75, 48 h, read-out: GI
ACHN [5] = assay: Anticancer activity against Homo sapiens (human) ACHN cells after 48 hr by SRB assay
786-0 [6] = assay: Anticancer activity against Homo sapiens (human) 786-0 cells after 48 hr by SRB assay; settings: 786-0, 48 h
SNB-19 = assay: Growth inhibition of Homo sapiens (human) SNB19 cells at 10 uM after 48 hr by SRB assay; settings: SNB-19, 48 h, read-out: GI
PC-3 = assay: Growth inhibition of Homo sapiens (human) PC3 cells at 10 uM after 48 hr by SRB assay; settings: PC-3, 48 h, read-out: GI
SK-MEL-5 = assay: Growth inhibition of Homo sapiens (human) SK-MEL-5 cells at 10 uM after 48 hr by SRB assay; settings: SK-MEL-5, 48 h, read-out: GI
SK-MEL-28 = assay: Growth inhibition of Homo sapiens (human) SK-MEL-28 cells at 10 uM after 48 hr by SRB assay; settings: SK-MEL-28, 48 h, read-out: GI
SN12C = assay: Growth inhibition of Homo sapiens (human) SN12C cells at 10 uM after 48 hr by SRB assay; settings: read-out: GI
TK-10 = assay: Growth inhibition of Homo sapiens (human) TK10 cells at 10 uM after 48 hr by SRB assay; settings: TK-10, 48 h, read-out: GI
[7] = read-out: LC50 (the source's name)

## Cc1c(C(N)=O)sc2nc(C)n(/N=c3\scc(-c4ccccc4)n3Cc3ccccc3)c(=O)c12
LOX IMVI
  GI50: 3.54 µM
  TGI: > 100 µM
LOX IMVI; [7]
  CC50: > 100 µM
SF-295
  GI50: 2.93 µM
  TGI: > 100 µM
SF-295; [7]
  CC50: > 100 µM
CAKI-1
  inhibition of growth at 10 µM: 141%
ACHN [1]
  inhibition of growth at 10 µM: 92.7%
786-0 [2]
  inhibition of growth at 10 µM: 49.3%
HL-60(TB) [3]
  inhibition of growth at 10 µM: 136%
OVCAR-5
  inhibition of growth at 10 µM: 52.1%
NCI/ADR-RES
  inhibition of growth at 10 µM: 81.1%
MCF7
  inhibition of growth at 10 µM: 82.7%
Hs-578T
  inhibition of growth at 10 µM: 115%
MOLT-4
  GI50: 24.6 µM
  TGI: > 100 µM
MOLT-4; [7]
  CC50: > 100 µM
HL-60(TB) [4]
  GI50: 6.68 µM
  TGI: > 100 µM
HL-60(TB) [4]; [7]
  CC50: > 100 µM
SNB-75
  inhibition of growth at 10 µM: 45.2%
ACHN [5]
  GI50: 2.86 µM
  TGI: > 100 µM
ACHN [5]; [7]
  CC50: > 100 µM
786-0 [6]
  GI50: 3.82 µM
  TGI: > 100 µM
786-0 [6]; [7]
  CC50: > 100 µM
SNB-19
  inhibition of growth at 10 µM: 70.6%
PC-3
  inhibition of growth at 10 µM: 98%
SK-MEL-5
  inhibition of growth at 10 µM: 92.6%
SK-MEL-28
  inhibition of growth at 10 µM: 51.8%
SN12C
  inhibition of growth at 10 µM: 52.3%
TK-10
  inhibition of growth at 10 µM: 47.2%
